Ki and Ratio data for 36 compounds are collected here from ChEMBL document CHEMBL1134501, “Structure-activity studies for a novel series of bicyclic substituted hexahydrobenz[e]isoindole alpha1A adrenoceptor antagonists as potential agents for the symptomatic treatment of benign prostatic hyperplasia” (J Med Chem, 2001).

Molecules are shown by their SMILES.

As usually defined, the Ki is a dissociation constant, usually derived from enzyme kinetics or from competition with a known ligand.

The target in assay [1] is T1, Alpha-1D adrenergic receptor (Rattus norvegicus, UniProt P23944).
T1 sequence (P23944 whole entry): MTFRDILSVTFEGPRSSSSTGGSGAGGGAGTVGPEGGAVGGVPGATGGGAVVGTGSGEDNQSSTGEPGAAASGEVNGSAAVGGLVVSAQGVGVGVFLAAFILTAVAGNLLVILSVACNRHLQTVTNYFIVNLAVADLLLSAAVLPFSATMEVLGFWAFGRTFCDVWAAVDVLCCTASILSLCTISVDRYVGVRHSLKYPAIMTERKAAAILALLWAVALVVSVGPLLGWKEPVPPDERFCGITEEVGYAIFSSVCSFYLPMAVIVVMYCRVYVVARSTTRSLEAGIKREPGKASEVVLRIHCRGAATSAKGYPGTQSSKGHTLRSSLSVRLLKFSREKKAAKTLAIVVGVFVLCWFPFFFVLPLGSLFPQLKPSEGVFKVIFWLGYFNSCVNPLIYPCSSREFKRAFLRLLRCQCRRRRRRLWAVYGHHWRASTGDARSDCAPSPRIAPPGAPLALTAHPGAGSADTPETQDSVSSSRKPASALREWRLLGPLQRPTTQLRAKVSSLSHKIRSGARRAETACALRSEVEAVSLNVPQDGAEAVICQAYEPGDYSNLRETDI
Kind of assay: Binding affinity to rat alpha-1D adrenergic receptor expressed in LTK cells. Format: cell-based.

Assay [2] has as its target T2, Alpha-1A adrenergic receptor (Rattus norvegicus, UniProt P43140).
T2 sequence (P43140 whole entry): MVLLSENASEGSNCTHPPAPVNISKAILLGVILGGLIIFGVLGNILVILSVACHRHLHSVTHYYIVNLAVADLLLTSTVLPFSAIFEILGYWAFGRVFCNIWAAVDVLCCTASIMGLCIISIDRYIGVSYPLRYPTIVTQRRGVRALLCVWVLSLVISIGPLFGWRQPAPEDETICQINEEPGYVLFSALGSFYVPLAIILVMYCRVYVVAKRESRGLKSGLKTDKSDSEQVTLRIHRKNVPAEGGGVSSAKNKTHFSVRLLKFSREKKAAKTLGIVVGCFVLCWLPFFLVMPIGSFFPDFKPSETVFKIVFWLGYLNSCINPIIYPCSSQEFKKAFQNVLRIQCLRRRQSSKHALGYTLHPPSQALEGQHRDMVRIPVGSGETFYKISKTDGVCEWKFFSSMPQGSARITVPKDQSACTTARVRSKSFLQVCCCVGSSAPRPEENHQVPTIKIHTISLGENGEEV
In words: Binding affinity to alpha-1A adrenergic receptor in rat submaxillary gland. The class given is tissue-based.

The species entered for another assay is Cricetulus griseus. In words: Selectivity ratio (alpha-1B/alpha-1A) of the compound.

`COc1cccc2c1CC[C@H]1CN(CCn3c(=O)[nH]c4c(C)c(C)ccc4c3=O)C[C@@H]21`: the Ki in assay [1] stood at 0.89 nM; in assay [2], 0.09 nM. Also, the Ratio in the assay filed under Cricetulus griseus turned out to be 14.6.

As to `COc1cc2c(cc1OC)CN(CCN1C[C@@H]3CCc4c(OC)cccc4[C@@H]3C1)CC2`, the Ki in assay [1] was 83.4 nM; in assay [2], 80.7 nM. Moreover, in the assay filed under Cricetulus griseus, the Ratio came to 1.43.

Take `COc1cccc2c1CC[C@H]1CN(CCn3c(=O)[nH]c4ccccc4c3=O)C[C@@H]21`: the Ki turned out to be 0.62 nM in assay [1] and 0.67 nM in assay [2]. Besides, the Ratio in the assay filed under Cricetulus griseus was 1.73.

With `COc1cc2c(cc1OC)NC(=O)N(CCN1C[C@@H]3CCc4c(OC)cccc4[C@@H]3C1)C2`, the Ki in assay [1] was determined as 168 nM; in assay [2] it was 123 nM. For the same compound, the Ratio in the assay filed under Cricetulus griseus stood at 1.5.

Regarding `COc1cccc2c1CC[C@H]1CN(CCn3c(=O)[nH]c4nccnc4c3=O)C[C@@H]21`, the figures for the Ki in assay [1] and in assay [2] were 5.49 nM and 9.22 nM, respectively. Further, the Ratio in the assay filed under Cricetulus griseus is 1.36.

As to `COc1cc2[nH]c(=O)n(CCN3C[C@@H]4CCc5c(OC)cccc5[C@@H]4C3)c(=O)c2cc1Cl`, the Ki in assay [1] stood at 2.71 nM; in assay [2], 1.89 nM. Further, in the assay filed under Cricetulus griseus, the Ratio stood at 4.9.

As to `COc1cccc2c1CC[C@H]1CN(CCn3c(=O)[nH]c4cccnc4c3=O)C[C@@H]21`, the Ki in assay [1] came to 2.5 nM; in assay [2] it was 3.58 nM. Also, in the assay filed under Cricetulus griseus, the Ratio is 2.29.

Regarding `COc1cccc2c1CC[C@H]1CN(CCn3c(=O)[nH]c4cnccc4c3=O)C[C@@H]21`, the Ki in assay [1] turned out to be 1.78 nM; in assay [2], 1.41 nM. Further, the Ratio in the assay listed under Cricetulus griseus was 2.19.

Regarding `COc1cccc2c1CC[C@H]1CN(CCn3c(=O)[nH]c4cc(NC(C)=O)ccc4c3=O)C[C@@H]21`, the Ki in assay [1] is 0.41 nM; in assay [2] it was 0.43 nM. The Ratio in the assay listed under Cricetulus griseus turned out to be 1.95.

Regarding `COc1cc2c(=O)n(CCN3C[C@@H]4CCc5c(OC)cccc5[C@@H]4C3)c(=O)n(C)c2cc1OC`, the Ki was 3.71 nM in assay [1] and 0.25 nM in assay [2]. For the same compound, the Ratio in the assay filed under Cricetulus griseus worked out at 13.2.

For `COc1cc2c(cc1OC)NCN(CCN1C[C@@H]3CCc4c(OC)cccc4[C@@H]3C1)C2`, the figures for the Ki in assay [1] and in assay [2] were 189 nM and 62.2 nM, respectively. For the same compound, the Ratio in the assay listed under Cricetulus griseus amounted to 1.01.

On to `COc1cccc2c1CC[C@H]1CN(CCn3c(=O)[nH]c4ncccc4c3=O)C[C@@H]21`, for which the Ki in assay [1] worked out at 1.99 nM.

For `COc1cccc2c1CC[C@H]1CN(CCn3c(=O)[nH]c4c(C)cc(C)cc4c3=O)C[C@@H]21`, the values for the Ki in assay [1] and in assay [2] were 2.86 nM and 2.73 nM, respectively. Also, the Ratio in the assay listed under Cricetulus griseus was found to be 5.96.

Regarding `COc1cccc2c1CCC1CN(CCn3c(=O)[nH]c4ccsc4c3=O)CC21` (configuration not stated), the Ki in assay [1] was found to be 0.92 nM; in assay [2] it was 1.39 nM. The Ratio in the assay listed under Cricetulus griseus was 1.17.

As for `COc1cccc2c1CC[C@H]1CN(CCn3c(=O)[nH]c4c(C)csc4c3=O)C[C@@H]21`, the inhibition constant Ki in assay [1] was 0.71 nM; in assay [2] it was 0.85 nM.

On to `COc1ccc2[nH]c(=O)n(CCN3C[C@@H]4CCc5c(OC)cccc5[C@@H]4C3)c(=O)c2c1`, for which the values for the Ki in assay [1] and in assay [2] were 1.13 nM and 1.02 nM, respectively. In the assay listed under Cricetulus griseus, the Ratio worked out at 3.68.

As for `COc1cccc2c1CC[C@H]1CN(CCn3c(=O)[nH]c4cscc4c3=O)C[C@@H]21`, the figures for the Ki in assay [1] and in assay [2] were 0.52 nM and 0.48 nM, respectively. In the assay filed under Cricetulus griseus, the Ratio was 2.1.

As to `COc1cccc2c1CC[C@H]1CN(CCn3c(=O)[nH]c4c(C(C)C)c(OC)sc4c3=O)C[C@@H]21`, the Ki in assay [1] was 1.5 nM; in assay [2] it was 0.41 nM. Moreover, the Ratio in the assay listed under Cricetulus griseus was 5.6.

Take `COc1cccc2c1CC[C@H]1CN(CCn3c(=O)[nH]c4cc([N+](=O)[O-])ccc4c3=O)C[C@@H]21`: the Ki in assay [1] came to 1.2 nM; in assay [2], 0.91 nM. Further, the Ratio in the assay filed under Cricetulus griseus is 3.65.

Regarding `COc1cccc2c1CC[C@H]1CN(CCn3c(=O)[nH]c4cc(-c5ccccc5)sc4c3=O)C[C@@H]21`, the Ki in assay [1] came out at 4.4 nM; in assay [2], 7.73 nM. The Ratio in the assay listed under Cricetulus griseus came out at 1.5.

Take `COc1cc(N)c(C(=O)NCCN2C[C@@H]3CCc4c(OC)cccc4[C@@H]3C2)cc1OC`: the Ki amounted to 32.7 nM in assay [1] and 3.75 nM in assay [2]. Further, the Ratio in the assay listed under Cricetulus griseus was 7.8.

For the compound `COc1cccc2c1CC[C@H]1CN(CCn3c(=O)[nH]c4cccc(Cl)c4c3=O)C[C@@H]21`, the Ki in assay [1] is 0.69 nM; in assay [2], 0.71 nM. For the same compound, in the assay listed under Cricetulus griseus, the Ratio turned out to be 1.31.

With `COc1cc2c(cc1OC)C(=O)N(CCN1C[C@@H]3CCc4c(OC)cccc4[C@@H]3C1)CN2`, the figures for the Ki in assay [1] and in assay [2] were 72 nM and 12.9 nM, respectively. Besides, the Ratio in the assay filed under Cricetulus griseus is 7.4.

On to `COc1cccc2c1CC[C@H]1CN(CCn3c(=O)[nH]c4ccncc4c3=O)C[C@@H]21`, for which the Ki in assay [1] was found to be 2.87 nM; in assay [2], 6.8 nM. The Ratio in the assay filed under Cricetulus griseus came to 1.55.

As to `COC(=O)c1ccc2c(=O)n(CCN3C[C@@H]4CCc5c(OC)cccc5[C@@H]4C3)c(=O)[nH]c2c1`, the inhibition constant (Ki) is 0.77 nM in assay [1] and 0.27 nM in assay [2]. The Ratio in the assay filed under Cricetulus griseus worked out at 6.07.

Compound `COc1cc2[nH]c(=O)n(CCN3C[C@@H]4CCc5c(OC)cccc5[C@@H]4C3)c(=O)c2cc1OC` had a Ki in assay [1] of 1.4 nM.

Regarding `COc1cc2[nH]c(=O)n(CCN3C[C@@H]4CCc5c(OC)cccc5[C@@H]4C3)c(=O)c2s1`, the Ki was found to be 0.24 nM in assay [1] and 0.04 nM in assay [2]. For the same compound, in the assay listed under Cricetulus griseus, the Ratio stood at 18.

Regarding `COC(=O)c1cc2[nH]c(=O)n(CCN3C[C@@H]4CCc5c(OC)cccc5[C@@H]4C3)c(=O)c2s1`, the Ki in assay [1] stood at 1.38 nM; in assay [2] it was 1.48 nM. For the same compound, in the assay filed under Cricetulus griseus, the Ratio came out at 2.3.

Take `COc1ccc2c(=O)n(CCN3C[C@@H]4CCc5c(OC)cccc5[C@@H]4C3)c(=O)[nH]c2c1`: the Ki came to 0.21 nM in assay [1] and 0.09 nM in assay [2]. Moreover, the Ratio in the assay filed under Cricetulus griseus stood at 7.3.

On to `COc1cccc2c1CC[C@H]1CN(CCn3c(=O)[nH]c4c(-c5ccccc5)csc4c3=O)C[C@@H]21`, for which the Ki worked out at 0.66 nM in assay [1] and 0.33 nM in assay [2]. In addition, in the assay filed under Cricetulus griseus, the Ratio turned out to be 1.

Take `COc1cccc2c1CC[C@H]1CN(CCn3c(=O)[nH]c4sccc4c3=O)C[C@@H]21`: the figures for the Ki in assay [1] and in assay [2] were 1.01 nM and 1.03 nM, respectively. Besides, in the assay listed under Cricetulus griseus, the Ratio came out at 2.04.

Consider `COc1cccc2c1CC[C@H]1CN(CCn3c(=O)[nH]c4cc(C)c(C)cc4c3=O)C[C@@H]21`, for which the Ki in assay [1] came out at 0.73 nM; in assay [2], 1.38 nM. In the assay filed under Cricetulus griseus, the Ratio is 2.94.

Take `COc1cccc2c1CC[C@H]1CN(CCn3c(=O)[nH]c4ccsc4c3=O)C[C@@H]21`: the Ki in assay [1] came out at 0.92 nM; in assay [2] it was 1.39 nM.

With `COc1cccc2c1CC[C@H]1CN(CCn3c(=O)[nH]c4cccc(C)c4c3=O)C[C@@H]21`, the inhibitory constant (Ki) in assay [1] was 1.13 nM; in assay [2], 1.15 nM. The Ratio in the assay listed under Cricetulus griseus stood at 0.9.

With `COc1cc2c(cc1OC)C(=O)N(CCN1C[C@@H]3CCc4c(OC)cccc4[C@@H]3C1)CC2`, the Ki in assay [1] was determined as 58.4 nM; in assay [2], 7.82 nM. Besides, in the assay filed under Cricetulus griseus, the Ratio was determined as 7.83.

For `COc1cccc2c1CC[C@H]1CN(CCn3c(=O)[nH]c4[nH]ccc4c3=O)C[C@@H]21`, the Ki in assay [1] came to 1.67 nM; in assay [2] it was 1.2 nM. The Ratio in the assay filed under Cricetulus griseus came out at 2.15.
